Assay results taken from patent US7962204B2 (priority 2001, dated 2011).

Test system: behaviorally-diagnosed psychiatric conditions (DSM categories)
Parameters: species or system human
Details: in vivo
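Wherever use code of agent in 301.7 Antisocial Personality Disorder is given: N marks novel agent found effective in subject subgroups.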
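Wherever use code of agent in 301.83 Borderline Personality Disorder is given: N marks novel agent found effective in subject subgroups.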
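Wherever use in 307.50 Eating Disorder NOS is given: N marks novel agent found effective in subject subgroups.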
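Wherever use in 307.51 Bulimia Nervosa is given: N marks novel agent found effective in subject subgroups.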

COCCc1ccc(OCC(O)CNC(C)C)cc1 (stereo not drawn) [METOPOLOL]
N: use code of agent in 296.89 Bipolar II Disorder | use code of agent in 296.90 Mood Disorder NOS | use code of agent in 301.13 Cyclothymic Disorder | use code of agent in 301.20 Schizoid Personality Disorder | use code of agent in 301.22 Schizotypal Personality Disorder | use code of agent in 301.4 Obsessive-Compulsive Personality Disorder | use code of agent in 301.50 Histrionic Personality Disorder | use code of agent in 301.6 Dependent Personality Disorder | use code of agent in 301.7 Antisocial Personality Disorder | use code of agent in 301.82 Avoidant Personality Disorder | use code of agent in 301.83 Borderline Personality Disorder | use code of agent in 307.42 Primary Insomnia | use code of agent in 311 Depressive Disorder NOS | use code of agent in 312.34 Intermittent Explosive Disorder | use code of agent in 312.39 Trichotillomania | use code of agent in 316 Psychological Factors Affecting Medical Condition, Hypertensive Disorder NOS | use code of agent in 316 Psychological Factors Affecting Medical Condition, Irritable Bowel Syndrome | use code of agent in 316 Psychological Factors Affecting Medical Condition, Neurodermatitis | use code of agent in Bipolar I Disorder | use code of agent in Major Depressive Disorder, Recurrent | use code of agent in Major Depressive Disorder, Single Episode | use in 294.9 Cognitive Disorder NOS | use in 299.00 Autistic Disorder | use in 299.80 Pervasive Developmental Disorder NOS | use in 300.00 Anxiety Disorder NOS | use in 300.02 Generalized Anxiety Disorder | use in 300.22 Agoraphobia Without History of Panic Disorder | use in 300.23 Social Phobia | use in 300.3 Obsessive-Compulsive Disorder | use in 307.1 Anorexia Nervosa | use in 307.20 Tic Disorder NOS | use in 307.22 Chronic Motor or Vocal Tic Disorder | use in 307.23 Tourette's Disorder | use in 307.50 Eating Disorder NOS | use in 307.51 Bulimia Nervosa | use in 309.21 Separation Anxiety Disorder | use in 309.81 Posttraumatic Stress Disorder | use in 312.30 Impulse-Control Disorder NOS | use in 312.31 Pathological Gambling | use in 312.8 Conduct Disorder | use in 313.81 Oppositional Defiant Disorder | use in 315.9 Learning Disorder NOS | use in Attention-Deficit/Hyperactivity Disorder | use in Panic Disorder | use of the agent in the diagnostic category (C = common use; N = novel use from rEEG features)

O=C(NCCN1CCOCC1)c1ccc(Cl)cc1 [MOCLOBEMIDE]
N: use code of agent in 302.71 Hypoactive Sexual Desire Disorder | use code of agent in 316 Psychological Factors Affecting Medical Condition, Hypertensive Disorder NOS

NC(=O)C[S+]([O-])C(c1ccccc1)c1ccccc1 (stereo not drawn) [MODAFINIL]
N: use code of agent in 294.8 Amnestic Disorder
